This assay has as its target T1, hMrgpMRGPRX2 (Homo sapiens, UniProt Q96LB1).
T1 construct: expressed in transfected cells
T1 sequence (Q96LB1 1-330): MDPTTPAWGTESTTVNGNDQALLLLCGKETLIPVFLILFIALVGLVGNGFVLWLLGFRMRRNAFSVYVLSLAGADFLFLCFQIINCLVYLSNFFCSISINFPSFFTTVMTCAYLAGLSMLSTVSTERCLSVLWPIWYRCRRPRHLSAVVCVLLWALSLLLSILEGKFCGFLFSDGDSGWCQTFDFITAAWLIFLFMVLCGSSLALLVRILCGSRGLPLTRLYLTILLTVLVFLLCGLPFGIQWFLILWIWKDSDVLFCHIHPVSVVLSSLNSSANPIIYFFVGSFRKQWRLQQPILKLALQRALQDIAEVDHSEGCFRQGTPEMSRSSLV
Description: FLIPR intracellular calcium mobilization, antagonist activity in recombinant hMrgpMRGPRX2 expressing cells. Format: cell-based. Conditions: read-out: Human MrgprX2 Antagonist pIC50 (converted). The method, boiled down: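 Antagonist activity was read as inhibition of intracellular calcium mobilization (FLIPR) in recombinant cells expressing human MrgprX2. Potency was also checked in LAD-2 human mast cells with endogenous receptor, and orthologue activity in cells expressing mouse MrgprB2, mouse MrgprA1, and gerbil, Chinese hamster and cynomolgus orthologues.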
Background: Calcium assays in cells follow changes in intracellular calcium, usually with a dye or a luminescent sensor.
`CCN(C[C@@H](O)C(F)(F)F)C(=O)Nc1cnc(Oc2ccc(F)cc2Cl)cn1` [Compound E260]: the IC50 was 4.07 nM.
The figure for `CCN(C[C@@H](OC)C(F)(F)F)C(=O)Nc1cnc(Oc2ccc(F)cc2F)cn1` [Compound E261] is 380 nM; for `CCN(C[C@@H](O)C(F)(F)F)C(=O)Nc1cnc(OCc2cccc(F)c2)cn1` [Compound E262] it is 676 nM.
For the compound `CCN(C[C@@H](O)C(F)(F)F)C(=O)Nc1cnc(Oc2ccc(C)cc2F)cn1` [Compound E263], the IC50 is 24.5 nM.
In the case of `CCN(C[C@@H](O)C(F)(F)F)C(=O)Nc1cnc(Oc2ccc(F)cc2C(F)(F)F)cn1` [Compound E264] it was 295 nM; in that of `CC(C)C(=O)Nc1ccc(Cc2ccccc2F)cn1` [Compound E268], 501 nM; in that of `CC1(C)C(C(=O)Nc2cc(C(=O)NCC(F)(F)F)ccn2)C1(C)C` [Compound E269, 2-[(2,2,3,3-tetramethylcyclopropanecarbonyl)amino]-N-(2,2,2-trifluoroethyl)pyridine-4-carboxamide], 3160 nM.
The figure for `CC1(C)C(C(=O)Nc2ccc(CN3CCCC3)cn2)C1(C)C` [Compound E270, 2,2,3,3-tetramethyl-N-[5-(pyrrolidin-1-ylmethyl)-2-pyridyl]cyclopropanecarboxamide] is 5250 nM; for `CC1(C)C(C(=O)Nc2ccc(-c3ncon3)cn2)C1(C)C` [Compound E271, 2,2,3,3-tetramethyl-N-[5-(1,2,4-oxadiazol-3-yl)-2-pyridyl]cyclopropanecarboxamide] it is 31.6 nM.
In the case of `Cc1nc(-c2ccc(NC(=O)C3C(C)(C)C3(C)C)nc2)no1` [Compound E272, 2,2,3,3-tetramethyl-N-[5-(5-methyl-1,2,4-oxadiazol-3-yl)-2-pyridyl]cyclopropanecarboxamide] it was 8.51 nM; in that of `CC1(C)C(C(=O)Nc2ccc(-c3cnco3)cn2)C1(C)C` [Compound E273, 2,2,3,3-tetramethyl-N-(5-oxazol-5-yl-2-pyridyl)cyclopropanecarboxamide], 661 nM; in that of `CC1(C)C(C(=O)Nc2ccc(-c3ccno3)cn2)C1(C)C` [Compound E274, N-(5-isoxazol-5-yl-2-pyridyl)-2,2,3,3-tetramethyl-cyclopropanecarboxamide], 20.4 nM.
For the compound `CC1(C)C(C(=O)Nc2ccc(-c3ccon3)cn2)C1(C)C` [Compound E275, N-(5-isoxazol-3-yl-2-pyridyl)-2,2,3,3-tetramethyl-cyclopropanecarboxamide], the IC50 is 12.3 nM.
The figure for `CC(C)C(=O)Nc1ccc(Cc2cccc(F)c2)cn1` [Compound E276, N-[5-[(3-fluorophenyl)methyl]-2-pyridyl]-2-methyl-propanamide] is 501 nM; for `NS(=O)(=O)N1CCC[C@@H]1C(=O)Nc1ccc(Oc2ccc(F)c(F)c2)cn1` [Compound E277, (2R)-N-[5-(3,4-difluorophenoxy)-2-pyridyl]-1-sulfamoyl-pyrrolidine-2-carboxamide] it is 1910 nM; for `CN1CCC[C@@H]1C(=O)Nc1ccc(Oc2ccc(F)c(F)c2)cn1` [Compound E278, (2R)-N-[5-(3,4-difluorophenoxy)-2-pyridyl]-1-methyl-pyrrolidine-2-carboxamide] it is 2630 nM.
In the case of `NS(=O)(=O)N1CCC[C@@H]1C(=O)Nc1ccc(Oc2cc(F)cc(F)c2)cn1` [Compound E279] it was 240 nM.
In the case of `NS(=O)(=O)N1CCC[C@@H]1C(=O)Nc1ccc(Oc2cc(F)ccc2F)cn1` [Compound E280] it was 589 nM.
In the case of `C[C@]1(C(=O)Nc2ccc(Oc3cc(F)ccc3F)cn2)CCCN1S(N)(=O)=O` [Compound E281], the IC50 was 81.3 nM.
In the case of `C[C@]1(C(=O)Nc2ccc(Oc3cc(F)cc(F)c3)cn2)CCCN1S(N)(=O)=O` [Compound E282], the IC50 was 27.5 nM.
With `NS(=O)(=O)N1CCC[C@H]1C(=O)Nc1ccc(Oc2cc(F)cc(F)c2)cn1` [Compound E283], the IC50 was 562 nM.

The values above are taken from patent US20230027929A1, “MrgprX2 Antagonists and Uses Thereof” (Dermira, Inc., priority 2019, published 2023).
